From US8158635B2, “Solid forms comprising 4-[9-(tetrahydro-furan-3-yl)-8-(2,4,6-trifluoro-phenylamino)-9H-purin-2-ylamino]-cyclohexan-1-ol, compositions thereof, and uses therewith” (Signal Pharmaceuticals, LLC, priority 2006, dated 2012)
Values after ≈ are worked out from the molar mass of the structure shown. Read-outs that look alike come from different tables or passages of the source.

How the values were obtained:
Assay type in all cases: physicochemical
[1] = Moisture sorption analysis (Dynamic Vapor Sorption)
Experimental: (§1) In certain embodiments, Form A of the free base of Compound I is stable during drying at temperatures up to about 40-45° C. In certain embodiments, the crystallization and/or recrystallization of Form A of the free base of Compound I provides an effective means of purification by removing or reducing the levels of chemical impurities (such as, e.g., one or more of the chemical compounds provided in FIG. 14) in the resulting material. In certain embodiments, Form A of the free base of Compound I is substantially pure. […] In certain embodiments, Form A of the free base of Compound I is stable upon compression.
Hygroscopicity (moisture sorption desorption) was determined by Dynamic Vapor Sorption (DVS). A solid sample comprising Compound I ranging from 10 to 50 mg was placed into the DVS instrument at 0% relative humidity (RH). The RH was increased from 0% to 80% or 95%. The RH was then decreased in a similar manner to accomplish a full sorption desorption cycle.

[2] = Equilibration of solid form in solvent for 4 weeks at 40° C., resulting form by XRPD
Experimental: Equilibration slurry and evaporation experiments were carried out by adding an excess of Compound I free base or HCl salt to 2 mL of solvent. […] Upon reaching equilibrium, the saturated supernatant solution was removed and allowed to evaporate slowly in an open vial under nitrogen at 25° C. or 50° C., respectively. The slurry resulting from the equilibration was filtered and air-dried. X-ray powder diffraction (XRPD) measurements were performed in accordance with United States Pharmacopeia (USP) monograph <941> entitled “X-ray Diffraction” (See, e.g., The United States Pharmacopeia, The National Formulary, 2003, The Unites States Pharmacopeial Convention, Inc., Rockville, Md., 2002, which is herein incorporated by reference in its entirety). A Thermo ARL X'TRA X-ray powder diffractometer (Thermo Electron Corp., Waltham, Mass.), equipped with Nickel-filtered Cu Kα radiation at 1.54 Å, was used for XRPD measurements from about 1.5 °2θ to about 40 °2θ, with a step size of about 0.020°, a count time of about 0.50 seconds per step, and a step scan rate of about 2.40°/min. The instrument was equipped with a fine focus X-ray tube. The voltage and amperage were set at 45 kV and 40 mA, respectively. The divergence slits were set at 0.5 mm and 0.2 mm. Diffracted radiation was measured using a Peltier-cooled Si (Li) solid-state detector. Representative XRPD patterns were presented displaying intensity (counts per second) versus position (°2θ). A sintered alumina standard was used to check peak positions. Peak positions may vary from sample to sample by approximately ±0.1 °2θ. Variation in peak position may depend upon multiple factors, including particle size, sample preparation, data collection temperature and parameters. Variation in peak intensity may occur, e.g., as a result of preferred orientation and/or variation in crystal habit.

[3] = Compression testing, form checked by XRPD; settings: about 2000-psi pressure for about 1 min
Experimental: as §1
X-ray powder diffraction (XRPD) measurements were performed in accordance with United States Pharmacopeia (USP) monograph <941> entitled “X-ray Diffraction” (See, e.g., The United States Pharmacopeia, The National Formulary, 2003, The Unites States Pharmacopeial Convention, Inc., Rockville, Md., 2002, which is herein incorporated by reference in its entirety). A Thermo ARL X'TRA X-ray powder diffractometer (Thermo Electron Corp., Waltham, Mass.), equipped with Nickel-filtered Cu Kα radiation at 1.54 Å, was used for XRPD measurements from about 1.5 °2θ to about 40 °2θ, with a step size of about 0.020°, a count time of about 0.50 seconds per step, and a step scan rate of about 2.40°/min. […] Diffracted radiation was measured using a Peltier-cooled Si (Li) solid-state detector. […]

[4] = Approximate solubilities of solid forms in solvents; settings: thermodynamic from solid, about 25° C., at least 24 hours, read-out: Approximate Solubility (mg/mL) of Form A of the Free Base of Compound I
Experimental: A weighed sample comprising either the free base or the HCl salt of Compound I was treated with 2 mL of a solvent (either HPLC or reagent grade). The resulting mixture was agitated for at least 24 hours at about 25° C. When all of the solids were dissolved by visual inspection, the estimated solubility was calculated. The solubility was estimated from these experiments based on the total volume of solvent used to give a complete solution. The actual solubility may be greater than those calculated due to the use of a large amount of solvent or a slow rate of dissolution. A known volume of filtrate was evaporated to dryness and the weight of the residue was measured.

## O[C@H]1CC[C@H](Nc2ncc3nc(Nc4c(F)cc(F)cc4F)n([C@H]4CCOC4)c3n2)CC1 (stereo in doubt) [Form A of the Free Base of Compound I, 4-[9-(tetrahydro-furan-3-yl)-8-(2,4,6-trifluoro-phenylamino)-9H-purin-2-ylamino]-cyclohexan-1-ol]
[1]; after sorption/desorption cycle
  XRPD pattern following moisture sorption analysis: substantially unchanged
[1]; increased from about 0% to about 80% RH
  mass gain in moisture sorption analysis: about 0.5%
[1]; increased from about 0% to about 95% RH
  mass gain in moisture sorption analysis: about 1.4%
[2]; Equilibrate Form A in 2-Propanol for 4 weeks at 40° C.
  Resulting Form by XRPD: Compound I Free Base Form A
[2]; Equilibrate Form A in Acetone for 4 weeks at 40° C.
  Resulting Form by XRPD: Compound I Free Base Form A
[2]; Equilibrate Form A in Acetonitrile for 4 weeks at 40° C.
  Resulting Form by XRPD: Compound I Free Base Form A
[2]; Equilibrate Form A in Ethyl acetate for 4 weeks at 40° C.
  Resulting Form by XRPD: Compound I Free Base Form A
[2]; Equilibrate Form A in Heptane for 4 weeks at 40° C.
  Resulting Form by XRPD: Compound I Free Base Form A
[2]; Equilibrate Form A in MTBE for 4 weeks at 40° C.
  Resulting Form by XRPD: Compound I Free Base Form A
[2]; Equilibrate Form A in Toluene for 4 weeks at 40° C.
  Resulting Form by XRPD: Compound I Free Base Form A
[2]; Equilibrate Form A in Water for 4 weeks at 40° C.
  Resulting Form by XRPD: Compound I Free Base Form A
[3]
  XRPD pattern after compression testing: substantially unchanged
[4]; 2-propanol, 25 °C, organic solvent or mixture, column 1, solvent 2-Propanol
  solubility: 15.7 mg/mL (≈ 34.9 mM)
[4]; 2-propanol, 25 °C, organic solvent or mixture, solvent 2-Propanol
  solubility: 6.39 mg/mL (≈ 14.2 mM)
[4]; absolute ethanol, 25 °C, organic solvent or mixture, column 1, solvent Absolute ethanol
  solubility: 47.1 mg/mL (≈ 105 mM)
[4]; absolute ethanol, 25 °C, organic solvent or mixture, solvent Absolute ethanol
  solubility: > 50 mg/mL
[4]; acetone, 25 °C, organic solvent or mixture, column 1, solvent Acetone
  solubility: 11.6 mg/mL (≈ 25.8 mM)
[4]; acetone, 25 °C, organic solvent or mixture, solvent Acetone
  solubility: 1.14 mg/mL (≈ 2.54 mM)
[4]; acetonitrile, 25 °C, organic solvent or mixture, column 1, solvent Acetonitrile
  solubility: 2.58 mg/mL (≈ 5.75 mM)
[4]; acetonitrile, 25 °C, organic solvent or mixture, solvent Acetonitrile
  solubility: 1.56 mg/mL (≈ 3.48 mM)
[4]; ethanol/water (1/1), 25 °C, aqueous with cosolvent or surfactant or cyclodextrin, column 1, solvent Ethanol/Water (1/1)
  solubility: 11.6 mg/mL (≈ 25.9 mM)
[4]; ethanol/water (1/1), 25 °C, aqueous with cosolvent or surfactant or cyclodextrin, solvent Ethanol/Water (1/1)
  solubility: > 50 mg/mL
[4]; ethyl acetate, 25 °C, organic solvent or mixture, column 1, solvent Ethyl acetate
  solubility: 3.91 mg/mL (≈ 8.72 mM)
[4]; ethyl acetate, 25 °C, organic solvent or mixture, solvent Ethyl acetate
  solubility: 0.02 mg/mL (≈ 0.0446 mM)
[4]; heptane, 25 °C, organic solvent or mixture, column 1, solvent Heptane
  solubility: 0.55 mg/mL (≈ 1.23 mM)
[4]; heptane, 25 °C, organic solvent or mixture, solvent Heptane
  solubility: 0.51 mg/mL (≈ 1.14 mM)
[4]; methanol, 25 °C, organic solvent or mixture, column 1, solvent Methanol
  solubility: > 50 mg/mL
[4]; methanol, 25 °C, organic solvent or mixture, solvent Methanol
  solubility: > 50 mg/mL
[4]; methyl ethyl ketone, 25 °C, organic solvent or mixture, column 1, solvent Methyl ethyl ketone
  solubility: 8.74 mg/mL (≈ 19.5 mM)
[4]; methyl ethyl ketone, 25 °C, organic solvent or mixture, solvent Methyl ethyl ketone
  solubility: 0.68 mg/mL (≈ 1.52 mM)
[4]; methyl t-butyl ether, 25 °C, organic solvent or mixture, column 1, solvent Methyl t-butyl ether
  solubility: 1.1 mg/mL (≈ 2.45 mM)
[4]; methylene chloride, 25 °C, organic solvent or mixture, column 1, solvent Methylene chloride
  solubility: 11.6 mg/mL (≈ 25.8 mM)
[4]; methylene chloride, 25 °C, organic solvent or mixture, solvent Methylene chloride
  solubility: 5 mg/mL (≈ 11.1 mM)
[4]; n-butanol, 25 °C, organic solvent or mixture, column 1, solvent n-Butanol
  solubility: 19.3 mg/mL (≈ 43.1 mM)
[4]; n-butanol, 25 °C, organic solvent or mixture, solvent n-Butanol
  solubility: 7.5 mg/mL (≈ 16.7 mM)
[4]; organic solvent or mixture, solvent Methyl t-butyl ether
  solubility: 0.46 mg/mL (≈ 1.03 mM)
[4]; tetrahydrofuran, 25 °C, organic solvent or mixture, column 1, solvent Tetrahydrofuran
  solubility: > 50 mg/mL
[4]; tetrahydrofuran, 25 °C, organic solvent or mixture, solvent Tetrahydrofuran
  solubility: 2.03 mg/mL (≈ 4.53 mM)
[4]; toluene, 25 °C, organic solvent or mixture, column 1, solvent Toluene
  solubility: 0.36 mg/mL (≈ 0.803 mM)
[4]; toluene, 25 °C, organic solvent or mixture, solvent Toluene
  solubility: 0.04 mg/mL (≈ 0.0892 mM)
[4]; water, 25 °C, water, column 1, solvent Water
  solubility: 0.41 mg/mL (≈ 0.914 mM)
[4]; water, 25 °C, water, solvent Water
  solubility: > 50 mg/mL
